Legend:
Assay type in all cases: functional
NCI-H23 [1] = assay: Antitumor activity against human NCI-H23 cells assessed as inhibition of cell growth at 40 nM incubated for 72 hrs by Celltiter Glo assay relative to control
NCI-H358 [2] = assay: Antitumor activity against human NCI-H358 cells assessed as inhibition of cell growth at 10 nM incubated for 72 hrs by Celltiter Glo assay relative to control
SW837 [3] = assay: Antitumor activity against human SW837 cells assessed as inhibition of cell growth at 12 nM incubated for 72 hrs by Celltiter Glo assay relative to control
SW837 [4] = assay: Antitumor activity against human SW837 cells xenografted in mouse assessed as tumor growth inhibition at 30 mg/kg, po administered once daily for 18 days relative to control; settings: SW837, 432 h, time 18 day, read-out: TGI
MIA PaCa-2 [5] = assay: Antitumor activity against human MIA PaCa-2 cells assessed as inhibition of cell growth at 350 nM incubated for 72 hrs by Celltiter Glo assay
SW837 [6] = assay: Synergistic antitumor activity against human SW837 cells assessed as tumor growth inhibition at 60 mg/kg, po once daily for 18 days co-administered with sotorasib relative to control; settings: SW837, 432 h, time 18 day, read-out: TGI
SW837 [7] = assay: Synergistic antitumor activity against human SW837 cells assessed as inhibition of cell growth at 1000 nM incubated for 72 hrs in presence of sotorasib by Celltiter Glo assay relative to control
MIA PaCa-2 [8] = assay: Antitumor activity against human MIA PaCa-2 cells assessed as inhibition of cell growth at 1000 nM incubated for 72 hrs by Celltiter Glo assay
NCI-H23 [9] = assay: Antitumor activity against human NCI-H23 cells assessed as inhibition of cell growth at 120 nM incubated for 72 hrs by Celltiter Glo assay relative to control
NCI-H23 [10] = assay: Synergistic antitumor activity against human NCI-H23 cells assessed as inhibition of cell growth at 120 nM incubated for 72 hrs in presence of sotorasib by Celltiter Glo assay relative to control
NCI-H358 [11] = assay: Antitumor activity against human NCI-H358 cells assessed as inhibition of cell growth at 300 nM incubated for 72 hrs by Celltiter Glo assay relative to control
MIA PaCa-2 [12] = assay: Synergistic antitumor activity against human MIA PaCa-2 cells assessed as inhibition of cell growth at 1000 nM incubated for 72 hrs in the presence of sotorasib by Celltiter Glo assay
SW837 [13] = assay: Antitumor activity against human SW837 cells assessed as inhibition of cell growth at 1000 nM incubated for 72 hrs by Celltiter Glo assay relative to control
SW837 [14] = assay: Synergistic antitumor activity against human SW837 cells assessed as tumor regression at 60 mg/kg, po once daily for 18 days co-administered with sotorasib relative to control; settings: time 18 day
NCI-H358 [15] = assay: Synergistic antitumor activity against human NCI-H358 cells assessed as inhibition of cell growth at 300 nM incubated for 72 hrs in presence of sotorasib by Celltiter Glo assay relative to control
SW837 [16] = assay: Antitumor activity against human SW837 cells xenografted in mouse assessed as tumor growth inhibition at 60 mg/kg, po administered once daily for 18 days relative to control; settings: SW837, 432 h, time 18 day, read-out: TGI

SMILES	inhibition at 0.04 µM (NCI-H23 [1]) [%]	inhibition at 0.01 µM (NCI-H358 [2]) [%]	inhibition at 0.012 µM (SW837 [3]) [%]	inhibition in vivo at 30 mg/kg (SW837 [4]) [%]	inhibition at 0.35 µM (MIA PaCa-2 [5]) [%]	inhibition in vivo at 60 mg/kg (SW837 [6]) [%]	inhibition at 1 µM (SW837 [7]) [%]	inhibition at 1 µM (MIA PaCa-2 [8]) [%]	inhibition at 0.12 µM (NCI-H23 [9]) [%]	inhibition at 0.12 µM (NCI-H23 [10]) [%]	inhibition at 0.3 µM (NCI-H358 [11]) [%]	inhibition at 1 µM (MIA PaCa-2 [12]) [%]	inhibition at 1 µM (SW837 [13]) [%]	Activity (SW837 [14]) [%]	inhibition at 0.3 µM (NCI-H358 [15]) [%]	inhibition in vivo at 60 mg/kg (SW837 [16]) [%]
C=CC(=O)N1CCN(c2nc(=O)n(-c3c(C)ccnc3C(C)C)c3nc(-c4c(O)cccc4F)c(F)cc23)[C@@H](C)C1 [SOTORASIB]	27.8	24	20.7	80	39											
C=CCn1c(=O)c2cnc(Nc3ccc(N4CCN(C)CC4)cc3)nc2n1-c1ccc2c(n1)[C@@](O)(CC)CC2 [AZENOSERTIB]						109	45.4	47	16.5	53	31.5	76	28.8	23	55.6	72
